Source: patent publication US20100021918A1, “METHOD FOR ASSAYING ACTION OF ANTITUMOR AGENT USING SPLICING DEFECTS AS INDEX” (Eisai R&D Management Co., Ltd., priority 2007, published 2010)

Test system: peripheral blood mononuclear cells (PBMC)
Assay: qPCR of precursor gene (pre-mRNA) expression in PBMC, Table 2
Format: cell-based, human
Conditions: three hours
Text: Since it is not easy to obtain a cancer tissue clinically, the measurement of the marker in hemocytes readily obtainable in peripheral blood would be more useful. It was then examined whether the marker gene obtained in cancer cells could change in peripheral blood mononuclear cells in a similar manner as observed in the cancer cells. Specifically peripheral blood was taken from three normal individuals (volunteers) and peripheral blood mononuclear cells were purified and treated with (8E,12E,14E)-7-((4-cycloheptylpiperazin-1-yl)carbonyl)oxy-3,6,16,21-tetrahydroxy-6,10,12,16,20-pentamethyl-18,19-epoxytricosa-8,12,14-trien-11-olide for three hours, followed by measurement of change in expression of the precursor gene (pre-mRNA) by qPCR.
Ficoll-Paque PLUS solution (Amersham, 17-1440-02) was slowly added to the blood taken (with heparin added) from healthy individuals to form a layer underneath the blood (15 mL of Ficoll-Paque PLUS solution was added to 25 mL of blood). After the mixture was centrifuged at 1500 rpm for 30 min, the upper part containing platelets was removed and then a layer containing mononuclear cells was transferred to another tube. The cells were suspended in PBS and centrifuged at 1500 rpm for 5 min, followed by removal of the supernatant. After these steps were repeated twice, the PBMC was suspended in RPMI1640 (containing 10% FBS, penicillin, and streptomycin) and the number of the cells was then counted.
PBMC was suspended in RPMI1640 medium (containing 10% FBS, penicillin, and streptomycin) to 5×10^6 cells/ml and 1 ml of the suspension was plated per well of a 24-well plate. Immediately, 111 μl of 10 times-concentrated (8E,12E,14E)-7-((4-cycloheptylpiperazin-1-yl)carbonyl)oxy-3,6,16,21-tetrahydroxy-6,10,12,16,20-pentamethyl-18,19-epoxytricosa-8,12,14-trien-11-olide was added to the well (six wells per each concentration tested). The cells were then cultured in an incubator with 5% carbon dioxide gas at 37° C. Three hours later, the supernatant was collected and centrifuged at 1500 rpm for five minutes. TRI reagent (SIGMA) (1 ml) was added to each well of the plate from which the supernatant was removed to harvest the cells, which was added to the centrifuged pellet to dissolve. RNA was purified in accordance with the protocol of TRI reagent. RNA was further purified using RNeasy (QIAGEN) and, in accordance with the protocol, DNaseI was added to the samples during the procedure. Absorbance at 260 nm was measured to quantify an amount of RNA.
RNA was prepared to 30 ng/μl and cDNA was synthesized using TaqMan Reverse Transcription Reagents (Applied Biosystems). For the expression level of pre-mRNA of ID1, amplification was carried out by using TaqMan Universal PCR Master Mix (Applied Biosystems) with TaqMan Gene Expression Assays (Hs00704053_s1, Applied Biosystems) as a probe. For the expression level of pre-mRNA of DNAJB1, BZW1, NUP54, RIOK3, CDKN1B, STK17B, ADRM1, EIF4A1, FOXK2, GNB2L1, HSPA9B, HSPH1, KLHL18 and VIL2, reagents were prepared in accordance with each protocol by using POWER SYBR GREEN PCR MASTER MIX (Applied Biosystems) and primers with the sequence below (Invitrogen), and the expression level was measured with ABI7900 (Applied Biosystems). 18S rRNA was measured by both the TaqMan and SYBR methods. The expression level of 18S r RNA was measured with Hs99999901_s1 (Applied Biosystems) as primers for TaqMan and with 18S primers included in TaqMan Ribosomal RNA control reagents (4308329: Applied Biosystems) as primers for SYBR. Measured values were corrected using the expression level of 18S rRNA as an internal control. The expression level of each gene was calculated with the expression level in the cells treated without (8E,12E,14E)-7-((4-cycloheptylpiperazin-1-yl)carbonyl)oxy-3,6,16,21-tetrahydroxy-6,10,12,16,20-pentamethyl-18,19-epoxytricosa-8,12,14-trien-11-olide as 1.

CCC(O)C(C)C1OC1CC(C)(O)/C=C/C=C(\C)C1OC(=O)CC(O)CCC(C)(O)C(OC(=O)N2CCN(C3CCCCCC3)CC2)/C=C/C1C (stereo not drawn) [E7107, (8E,12E,14E)-7-((4-cycloheptylpiperazin-1-yl)carbonyl)oxy-3,6,16,21-tetrahydroxy-6,10,12,16,20-pentamethyl-18,19-epoxytricosa-8,12,14-trien-11-olide]
expression level of pre-mRNA of ADRM1 (untreated cells as 1) (E7107 3 nM): 1.8
expression level of pre-mRNA of BZW1 (untreated cells as 1) (E7107 3 nM): 1.72
expression level of pre-mRNA of CDKN1B (untreated cells as 1) (E7107 3 nM): 1.27
expression level of pre-mRNA of DNAJB1 (untreated cells as 1) (E7107 3 nM): 2.25
expression level of pre-mRNA of EIF4A1 (untreated cells as 1) (E7107 3 nM): 2.17
expression level of pre-mRNA of FOXK2 (untreated cells as 1) (E7107 3 nM): 2.1
expression level of pre-mRNA of GNB2L1 (untreated cells as 1) (E7107 3 nM): 2.47
expression level of pre-mRNA of HSPA9 (untreated cells as 1) (E7107 3 nM): 1.87
expression level of pre-mRNA of HSPH1 (untreated cells as 1) (E7107 3 nM): 1.26
expression level of pre-mRNA of ID1 (untreated cells as 1) (E7107 3 nM): 3.31
expression level of pre-mRNA of KLHL18 (untreated cells as 1) (E7107 3 nM): 2.36
expression level of pre-mRNA of NUP54 (untreated cells as 1) (E7107 3 nM): 2.31
expression level of pre-mRNA of RIOK3 (untreated cells as 1) (E7107 3 nM): 2.59
expression level of pre-mRNA of STK17B (untreated cells as 1) (E7107 3 nM): 1.94
expression level of pre-mRNA of VIL2 (untreated cells as 1) (E7107 3 nM): 1.27
expression level of pre-mRNA of ADRM1 (untreated cells as 1) (E7107 10 nM): 2.68
expression level of pre-mRNA of BZW1 (untreated cells as 1) (E7107 10 nM): 2.34
expression level of pre-mRNA of CDKN1B (untreated cells as 1) (E7107 10 nM): 2.35
expression level of pre-mRNA of DNAJB1 (untreated cells as 1) (E7107 10 nM): 4.46
expression level of pre-mRNA of EIF4A1 (untreated cells as 1) (E7107 10 nM): 3.64
expression level of pre-mRNA of FOXK2 (untreated cells as 1) (E7107 10 nM): 2.68
expression level of pre-mRNA of GNB2L1 (untreated cells as 1) (E7107 10 nM): 2.74
expression level of pre-mRNA of HSPA9 (untreated cells as 1) (E7107 10 nM): 3.45
expression level of pre-mRNA of HSPH1 (untreated cells as 1) (E7107 10 nM): 1.88
expression level of pre-mRNA of ID1 (untreated cells as 1) (E7107 10 nM): 6
expression level of pre-mRNA of KLHL18 (untreated cells as 1) (E7107 10 nM): 2.97
expression level of pre-mRNA of NUP54 (untreated cells as 1) (E7107 10 nM): 2.46
expression level of pre-mRNA of RIOK3 (untreated cells as 1) (E7107 10 nM): 3.57
expression level of pre-mRNA of STK17B (untreated cells as 1) (E7107 10 nM): 3.44
expression level of pre-mRNA of VIL2 (untreated cells as 1) (E7107 10 nM): 2.87
expression level of pre-mRNA of ADRM1 (untreated cells as 1) (E7107 30 nM): 2.59
expression level of pre-mRNA of BZW1 (untreated cells as 1) (E7107 30 nM): 3.26
expression level of pre-mRNA of CDKN1B (untreated cells as 1) (E7107 30 nM): 4.9
expression level of pre-mRNA of DNAJB1 (untreated cells as 1) (E7107 30 nM): 7.42
expression level of pre-mRNA of EIF4A1 (untreated cells as 1) (E7107 30 nM): 4.36
expression level of pre-mRNA of FOXK2 (untreated cells as 1) (E7107 30 nM): 2.31
expression level of pre-mRNA of GNB2L1 (untreated cells as 1) (E7107 30 nM): 2.23
expression level of pre-mRNA of HSPA9 (untreated cells as 1) (E7107 30 nM): 2.33
expression level of pre-mRNA of HSPH1 (untreated cells as 1) (E7107 30 nM): 2.68
expression level of pre-mRNA of ID1 (untreated cells as 1) (E7107 30 nM): 10.57
expression level of pre-mRNA of KLHL18 (untreated cells as 1) (E7107 30 nM): 2.6
expression level of pre-mRNA of NUP54 (untreated cells as 1) (E7107 30 nM): 1.93
expression level of pre-mRNA of RIOK3 (untreated cells as 1) (E7107 30 nM): 2.89
expression level of pre-mRNA of STK17B (untreated cells as 1) (E7107 30 nM): 3.99
expression level of pre-mRNA of VIL2 (untreated cells as 1) (E7107 30 nM): 4.89
